According to ChEMBL document CHEMBL5113521, “Discovery of a Novel Oral Proteasome Inhibitor to Block NLRP3 Inflammasome Activation with Anti-inflammation Activity” (J Med Chem, 2022):

What was measured:
[1] = molecular target: T1, Proteasome Macropain subunit MB1 (Homo sapiens, UniProt P28074); assay: Inhibition of 20S proteasome beta5 subunit (unknown origin) using Suc-LLVY-AMC as flurogenic substrate measured after 1 hr by fluorescence based analysis; settings: read-out: pIC50 (converted)
T1 sequence (P28074 whole entry): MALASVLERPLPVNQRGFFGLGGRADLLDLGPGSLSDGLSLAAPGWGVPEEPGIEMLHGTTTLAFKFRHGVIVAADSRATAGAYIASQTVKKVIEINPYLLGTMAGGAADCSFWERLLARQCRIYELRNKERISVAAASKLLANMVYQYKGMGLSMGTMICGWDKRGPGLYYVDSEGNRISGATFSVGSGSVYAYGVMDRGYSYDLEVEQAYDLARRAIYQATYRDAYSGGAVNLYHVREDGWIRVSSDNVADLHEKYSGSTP

[2] = Cytotoxicity against HEK293 cells incubated for 24 hrs; type: toxicity, cell-based; settings: human
HEK293 = assay: Cytotoxicity against HEK293 cells at less than 20 uM incubated for 24 hrs; type: toxicity, cell-based; settings: human, hek293, 24 h
[3] = molecular target: NACHT, LRR and PYD domains-containing protein 3 (Mus musculus) (UniProt Q8R4B8); assay: Inhibition of NLRP3 inflammasome activation in LPS-primed mouse J774.A1 cells assessed as reduction in IL-1beta secretion at 1 uM relative to control; type: cell-based
NACHT, LRR and PYD domains-containing protein 3 (Mus musculus), sequence (Q8R4B8 whole entry, the tested form may be a part): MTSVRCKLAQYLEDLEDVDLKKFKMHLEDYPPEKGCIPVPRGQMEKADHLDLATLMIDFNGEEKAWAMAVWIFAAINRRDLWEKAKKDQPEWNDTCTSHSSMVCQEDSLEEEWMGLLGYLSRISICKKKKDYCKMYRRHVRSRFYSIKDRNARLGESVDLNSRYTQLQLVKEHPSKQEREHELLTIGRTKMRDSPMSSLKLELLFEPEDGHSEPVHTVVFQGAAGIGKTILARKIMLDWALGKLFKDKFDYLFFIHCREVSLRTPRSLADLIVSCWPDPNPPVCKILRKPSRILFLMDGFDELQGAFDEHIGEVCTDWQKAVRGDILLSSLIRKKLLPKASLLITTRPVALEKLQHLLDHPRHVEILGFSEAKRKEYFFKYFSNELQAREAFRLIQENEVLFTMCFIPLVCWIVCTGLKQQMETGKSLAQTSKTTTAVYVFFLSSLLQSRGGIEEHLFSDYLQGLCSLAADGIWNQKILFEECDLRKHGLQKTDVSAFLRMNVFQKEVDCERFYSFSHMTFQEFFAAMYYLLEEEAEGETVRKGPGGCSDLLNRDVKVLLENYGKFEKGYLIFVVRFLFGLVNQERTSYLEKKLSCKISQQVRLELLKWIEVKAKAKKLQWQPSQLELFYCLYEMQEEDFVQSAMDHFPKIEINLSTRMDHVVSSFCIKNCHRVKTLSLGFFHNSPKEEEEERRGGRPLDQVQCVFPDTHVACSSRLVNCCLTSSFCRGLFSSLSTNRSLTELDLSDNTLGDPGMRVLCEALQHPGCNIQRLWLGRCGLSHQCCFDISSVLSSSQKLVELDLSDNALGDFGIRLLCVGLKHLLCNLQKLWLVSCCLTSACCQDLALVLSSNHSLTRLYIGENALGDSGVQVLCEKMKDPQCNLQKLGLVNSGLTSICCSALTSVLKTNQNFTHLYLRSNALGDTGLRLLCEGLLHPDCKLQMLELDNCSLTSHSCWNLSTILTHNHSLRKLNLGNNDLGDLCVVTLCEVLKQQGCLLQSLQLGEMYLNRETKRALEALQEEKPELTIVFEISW

Row | SMILES | IC50 [1] | inhibition [3] | IC50 at 24 h [2] | Activity (HEK293)
1 | CC(C)C[C@H](NC(=O)[C@H](Cc1ccccc1)NC(=O)c1cnccn1)B(O)O [BORTEZOMIB] |  |  | < 79.4 nM | Non-Toxic
2 | O=C(O)C[C@@H]1CC[C@H](NC(=O)Cc2cccs2)B(O)O1 |  | 7.8% |  | 
3 | CC(C)C[C@H](NC(=O)[C@H](Cc1ccccc1)NC(=O)c1cc(Cl)ccc1Cl)C(=O)O | 50.1 nM |  |  | 
4 | CC(C)C[C@H](NC(=O)[C@H](Cc1ccccc1)NC(=O)c1ccccn1)B(O)O | 6.76 nM |  | < 79.4 nM | Non-Toxic
5 | CC(C)C[C@H](NC(=O)[C@H](Cc1ccccc1)NC(=O)c1nc(Cl)ccc1Cl)B(O)O | 4.27 nM |  | < 79.4 nM | Non-Toxic
6 | COc1ccc(F)cc1C(=O)N[C@@H](Cc1ccccc1)C(=O)N[C@@H](CC(C)C)B(O)O | 4.47 nM |  |  | 
7 | CC(C)C[C@H](NC(=O)[C@H](Cc1ccccc1)NC(=O)c1c(Cl)cccc1Cl)B(O)O | 3.02 nM |  | < 79.4 nM | Non-Toxic
8 | CC(C)C[C@H](NC(=O)[C@H](Cc1ccccc1)NC(=O)c1cccc(F)c1F)B(O)O | 1.12 nM |  | < 79.4 nM | Non-Toxic
9 | CC(C)C[C@H](NC(=O)[C@H](Cc1ccccc1)NC(=O)c1ccc(F)cc1F)B(O)O | 4.79 nM |  |  | 
10 | CC(C)C[C@H](NC(=O)[C@H](Cc1ccccc1)NC(=O)c1cnc2ccccc2n1)B(O)O | 13.2 nM |  |  | 
11 | CC(C)C[C@H](NC(=O)[C@H](Cc1ccccc1)NS(=O)(=O)c1cc(Cl)ccc1Cl)B(O)O | 19.5 nM |  |  | 
12 | CC(C)C[C@H](NC(=O)[C@H](Cc1ccccc1)NC(=O)c1cnccn1)C(=O)O | 50.1 nM |  |  | 
13 | CC(C)C[C@H](NC(=O)[C@H](Cc1ccccc1)NC(=O)c1cccc(Cl)c1Cl)B(O)O | 1.2 nM |  | < 79.4 nM | Non-Toxic
14 | CC(C)C[C@H](NC(=O)[C@H](Cc1ccccc1)NC(=O)c1cc(F)ccc1F)B(O)O | 6.03 nM |  |  | 
15 | Cc1cncc(C(=O)N[C@@H](Cc2ccccc2)C(=O)N[C@@H](CC(C)C)B(O)O)n1 | 32.4 nM |  |  | 

The next lines start with results.

Row | IC50 [1] | inhibition [3] | SMILES | IC50 at 24 h [2] | Activity (HEK293)
16 | 0.708 nM |  | CC(C)C[C@H](NC(=O)[C@@H](NC(=O)c1cc(Cl)ccc1Cl)C(C)C)B(O)O |  | 
17 | 3.02 nM |  | CC(C)C[C@H](NC(=O)[C@H](Cc1ccccc1)NC(=O)c1cc(Cl)ccc1F)B(O)O |  | 
18 | > 50.1 nM |  | CC(C)C[C@H](NC(=O)c1cc(Cl)ccc1Cl)B(O)O |  | 
19 | > 50.1 nM |  | CC(C)C[C@H](NC(=O)CN(C)C(=O)c1cc(Cl)ccc1Cl)B(O)O |  | 
20 | 3.24 nM |  | CC[C@@H](C)[C@H](NC(=O)c1cc(Cl)ccc1Cl)C(=O)N[C@@H](CC(C)C)B(O)O |  | 
21 | 5.13 nM |  | CC(C)C[C@H](NC(=O)[C@H](CO)NC(=O)c1cc(Cl)ccc1Cl)B(O)O |  | 
22 | 4.07 nM |  | CC(C)C[C@H](NC(=O)[C@H](CC(C)C)NC(=O)c1cc(Cl)ccc1Cl)B(O)O |  | 
23 | 1 nM |  | CC(C)C[C@H](NC(=O)[C@H](Cc1ccc(O)cc1)NC(=O)c1cc(Cl)ccc1Cl)B(O)O | < 79.4 nM | Non-Toxic
24 |  | 77% | CC(C)C[C@H](NC(=O)CNC(=O)c1cc(Cl)ccc1Cl)B(O)O |  | 
25 | > 50.1 nM |  | CC(C)C[C@H](NC(=O)c1ccc(CNC(=O)c2cc(Cl)ccc2Cl)cc1)B(O)O |  | 
26 | 6.31 nM |  | CC(C)C[C@H](NC(=O)[C@H](Cc1ccccc1)NC(=O)c1cc(Cl)ccc1Cl)B(O)O |  | 
27 | 12 nM |  | CC(C)C[C@H](NC(=O)[C@H](Cc1ccc2ccccc2c1)NC(=O)c1cc(Cl)ccc1Cl)B(O)O |  | 
28 | 3.47 nM |  | CC(C)C[C@H](NC(=O)[C@H](Cc1ccccc1)NC(=O)c1ccc(Cl)cc1Cl)B(O)O |  | 
29 | 8.32 nM |  | COc1ccc(Cl)cc1C(=O)N[C@@H](Cc1ccccc1)C(=O)N[C@@H](CC(C)C)B(O)O |  | 
30 | 7.08 nM |  | CC(C)C[C@H](NC(=O)[C@@H](NC(=O)c1cc(Cl)ccc1Cl)c1ccccc1)B(O)O |  | 
